Measured values taken from the supplement of paper PMC10307832.

Columns and labels:
Assay in all cases: relative viability (nuclei count vs DMSO), 5 days (fraction); higher = more cells survive
IU1-47 + Linsitinib = compound: CC1=CC(=C(N1C2=CC=C(C=C2)Cl)C)C(=O)CN3CCCCC3 [IU1-47] + C[C@]1(O)C[C@@H](c2nc(-c3ccc4ccc(-c5ccccc5)nc4c3)c3c(N)nccn32)C1 [Linsitinib] (partner 1 µM)
Procedure, shortened: (§1)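 Relative viability equals treated-well nuclei counts divided by vehicle-well nuclei counts. Counts came from 4× images of lung cancer cell lines grown in 1536-well plates for 5 days after pin-tool dosing on the day after seeding. Dosing used one drug alone or a fixed anchor-drug dose plus five library-drug doses (not always all listed) in √10 steps, and values are medians of duplicate plates.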

IU1-47 + Navitoclax = compound: CC1=CC(=C(N1C2=CC=C(C=C2)Cl)C)C(=O)CN3CCCCC3 [IU1-47] + CC1(C)CCC(c2ccc(Cl)cc2)=C(CN2CCN(c3ccc(C(=O)NS(=O)(=O)c4ccc(N[C@H](CCN5CCOCC5)CSc5ccccc5)c(S(=O)(=O)C(F)(F)F)c4)cc3)CC2)C1 [Navitoclax] (partner 0.5 µM)
Procedure, shortened: as §1

IU1-47 + Palbociclib = compound: CC1=CC(=C(N1C2=CC=C(C=C2)Cl)C)C(=O)CN3CCCCC3 [IU1-47] + CC(=O)c1c(C)c2cnc(Nc3ccc(N4CCNCC4)cn3)nc2n(C2CCCC2)c1=O [Palbociclib] (partner 0.5 µM)
Procedure, shortened: as §1

IU1-47 + Trametinib = compound: CC1=CC(=C(N1C2=CC=C(C=C2)Cl)C)C(=O)CN3CCCCC3 [IU1-47] + CC(=O)Nc1cccc(-n2c(=O)n(C3CC3)c(=O)c3c(Nc4ccc(I)cc4F)n(C)c(=O)c(C)c32)c1 [Trametinib] (partner 0.02 µM)
Procedure, shortened: as §1

| Cell Line | relative viability (IU1-47 + Linsitinib; first compound 0.08 µM) | relative viability (IU1-47 + Linsitinib; first compound 0.253 µM) | relative viability (IU1-47 + Linsitinib; first compound 0.8 µM) | relative viability (IU1-47 + Linsitinib; first compound 8 µM) | relative viability (IU1-47 + Navitoclax; first compound 0.08 µM) | relative viability (IU1-47 + Navitoclax; first compound 0.253 µM) | relative viability (IU1-47 + Navitoclax; first compound 0.8 µM) | relative viability (IU1-47 + Navitoclax; first compound 8 µM) | relative viability (IU1-47 + Palbociclib; first compound 0.08 µM) | relative viability (IU1-47 + Palbociclib; first compound 0.253 µM) | relative viability (IU1-47 + Palbociclib; first compound 0.8 µM) | relative viability (IU1-47 + Palbociclib; first compound 2.53 µM) | relative viability (IU1-47 + Palbociclib; first compound 8 µM) | relative viability (IU1-47 + Trametinib; first compound 0.08 µM) | relative viability (IU1-47 + Trametinib; first compound 0.253 µM) | relative viability (IU1-47 + Trametinib; first compound 0.8 µM) | relative viability (IU1-47 + Trametinib; first compound 2.53 µM) | relative viability (IU1-47 + Trametinib; first compound 8 µM) | relative viability (IU1-47 + Linsitinib; first compound 2.53 µM) | relative viability (IU1-47 + Navitoclax; first compound 2.53 µM) |
| --- | --- | --- | --- | --- | --- | --- | --- | --- | --- | --- | --- | --- | --- | --- | --- | --- | --- | --- | --- | --- |
| HCC-366 | 0.698 | 0.643 | 0.951 | 0.567 | 1.07 | 1.09 | 0.935 | 1.46 | 0.409 | 0.421 | 0.349 | 0.546 | 0.327 | 0.402 | 0.431 | 0.394 | 0.423 | 0.323 | – | – |
| HCC-827 | 0.99 | 0.92 | 0.941 | 0.963 | 1.06 | 1.08 | 1.01 | 0.995 | 0.553 | 0.497 | 0.534 | 0.551 | 0.535 | 0.565 | 0.481 | 0.596 | 0.54 | 0.517 | 1.01 | 1.02 |
| HOP-62 | 0.98 | 1.04 | 0.805 | 0.886 | 1.05 | 0.962 | 1.12 | 1.21 | 0.515 | 0.524 | 0.483 | 0.499 | 0.452 | 0.4 | 0.332 | 0.387 | 0.383 | 0.348 | 0.677 | 0.897 |
| IA-LM | 0.526 | 0.407 | 0.655 | 0.604 | 0.758 | 1.08 | 0.739 | 0.81 | – | – | – | – | – | – | – | – | – | – | 0.741 | 1.05 |
| LC-2-ad | 0.863 | 0.91 | 0.845 | 0.918 | 0.429 | 0.548 | 0.524 | 0.382 | 0.498 | 0.509 | 0.484 | – | 0.488 | 0.951 | 1.02 | 0.954 | – | 0.884 | 0.853 | 0.443 |
| LCLC-97TM1 | 0.177 | 0.228 | 0.168 | 0.175 | 0.526 | 0.502 | 0.517 | 0.404 | 0.281 | 0.229 | 0.218 | – | 0.297 | 0.201 | 0.188 | 0.198 | – | 0.179 | – | – |
| LCLC-103H | 1.07 | 1.07 | 1.18 | 1.3 | – | – | – | – | 0.551 | 0.531 | 0.506 | 0.478 | 0.469 | 0.71 | 0.817 | 0.701 | 0.647 | 0.7 | 1.07 | – |
| LK-2 | 0.742 | 0.697 | 0.592 | 0.416 | 1.11 | 0.956 | 0.893 | 0.546 | 1.04 | 1.03 | 0.568 | 0.68 | 0.559 | 0.932 | 0.834 | 0.772 | 0.545 | 0.831 | 0.335 | 0.773 |
| LOU-NH91 | 1.07 | 1.06 | 0.939 | 0.868 | 0.772 | 0.687 | 0.638 | 0.652 | 0.524 | 0.533 | 0.539 | 0.431 | 0.507 | 0.904 | 0.845 | 0.844 | 0.795 | 0.749 | 0.907 | 0.609 |
| NCI-H358 | 0.737 | 0.791 | 0.75 | 0.703 | – | – | – | – | 0.131 | 0.165 | 0.149 | 0.112 | 0.141 | 0.129 | 0.13 | 0.128 | 0.135 | 0.121 | – | – |
| NCI-H522 | – | – | – | – | – | – | – | – | 0.987 | 0.988 | 1.36 | 0.845 | 0.956 | 0.826 | 0.747 | 0.708 | 0.715 | 0.865 | – | – |
| NCI-H596 | 1.17 | 1.11 | 1.02 | 0.934 | 1.05 | 0.961 | 0.982 | 1.05 | – | – | – | – | – | 0.765 | – | 0.779 | 0.834 | 0.677 | 0.984 | 0.869 |
| NCI-H650 | 0.831 | 0.966 | 0.924 | 0.875 | – | – | – | – | 0.361 | 0.332 | 0.312 | 0.373 | 0.288 | 0.96 | 0.958 | 0.863 | 0.91 | 1.06 | 0.796 | – |
| NCI-H661 | 0.622 | 0.644 | 0.596 | 0.474 | – | – | – | – | 0.433 | 0.425 | 0.44 | 0.415 | 0.443 | 0.576 | 0.57 | 0.576 | 0.464 | 0.471 | 0.419 | – |
| NCI-H1299 | 0.943 | 0.951 | 1.05 | 0.975 | 1.11 | 1.13 | 1.05 | 1.03 | – | – | – | – | – | – | – | – | – | – | 1.01 | 1.05 |
| NCI-H1563 | 1.22 | 1.05 | 1.19 | 1.14 | – | – | – | – | – | – | – | – | – | – | – | – | – | – | 1.07 | – |
| NCI-H1648 | – | – | – | – | – | – | – | – | 0.285 | 0.289 | 0.282 | 0.249 | 0.265 | 0.624 | 0.535 | 0.463 | 0.407 | 0.391 | – | – |
| NCI-H1650 | – | – | – | – | 1.08 | 1.35 | 1.08 | 0.918 | 0.322 | 0.313 | 0.27 | 0.317 | 0.287 | 0.515 | 0.766 | 0.612 | 0.62 | 0.459 | – | 1.36 |
| NCI-H1703 | 0.516 | 0.707 | 0.416 | 0.886 | 1.06 | 0.961 | 0.953 | 1.15 | – | – | – | – | – | – | – | – | – | – | 0.671 | 1.44 |
| NCI-H2170 | – | – | – | – | 0.74 | 0.734 | 0.684 | 0.577 | 0.461 | 0.463 | 0.455 | 0.411 | 0.382 | 0.991 | 0.913 | 1 | 0.9 | 0.638 | – | 0.525 |
| NCI-H2342 | – | – | – | – | – | – | – | – | 0.564 | 0.569 | 0.487 | 0.527 | 0.519 | 0.85 | 0.882 | 1.05 | 0.973 | 0.89 | – | – |
| SW 900 | – | – | – | – | – | – | – | – | 0.53 | – | 0.564 | 0.621 | 0.513 | 0.876 | – | 0.783 | 0.881 | 0.716 | – | – |
